Experimental findings from ChEMBL document CHEMBL4387741, “Optimization of novel reversible Bruton's tyrosine kinase inhibitors identified using Tethering-fragment-based screens” (Bioorg Med Chem, 2019) are described below.

Values after ≈ are worked out from the molar mass of the structure shown.

The test system of data set [1] is Tyrosine-protein kinase ABL1 (Homo sapiens), P00519 [Y253F]. Nature of the data set: Inhibition of human phosphorylated ABL1 Y253F mutant (S229 to K512 residues) expressed in mammalian expression system at 1 uM by Kinomescan method relative to control.
The test system of data set [2] is Epidermal growth factor receptor (Homo sapiens), P00533 [L858R]. The experiment in a line: Inhibition of human partial length EGFR L858R mutant (R669 to V1011 residues) expressed in bacterial expression system at 1 uM by Kinomescan method relative to control.
The target in data set [3] is Receptor-type tyrosine-protein kinase FLT3 (Homo sapiens) (UniProt P36888). Nature of the data set: Inhibition of wild-type human partial length autoinhibited FLT3 (H564 to Y969 residues) expressed in mammalian expression system at 1 uM by Kinomescan method relative to control.
Data set [4] deals with Epidermal growth factor receptor (Homo sapiens), P00533 [UNDEFINED MUTATION]. Nature of the data set: Inhibition of human partial length EGFR L747-T751del/Sins mutant expressed in bacterial expression system at 1 uM by Kinomescan method relative to control.
Data set [5] concerns Mast/stem cell growth factor receptor Kit (Homo sapiens), P10721 [A829P]. Nature of the data set: Inhibition of human partial length KIT A829P mutant (I571 to D952 residues) expressed in mammalian expression system at 1 uM by Kinomescan method relative to control.
Data set [6] has as its system Phosphatidylinositol 4,5-bisphosphate 3-kinase catalytic subunit alpha isoform (Homo sapiens), P42336 [H1047L]. The experiment in a line: Inhibition of human partial length PIK3CA H1047L mutant (R108 to N1068 residues) expressed in mammalian expression system at 1 uM by Kinomescan method relative to control.
Data set [7] deals with Serine/threonine-protein kinase Nek4 (Homo sapiens) (UniProt P51957). Nature of the data set: Inhibition of wild-type human full length NEK4 (M1 to F841 residues) expressed in mammalian expression system at 1 uM by Kinomescan method relative to control.
In data set [8] the test system is Epidermal growth factor receptor (Homo sapiens), P00533 [T790M]. Nature of the data set: Inhibition of human partial length EGFR T790M mutant (R669 to G1022 residues) expressed in mammalian expression system at 1 uM by Kinomescan method relative to control.
The target of data set [9] is Testis-specific serine/threonine-protein kinase 3 (Homo sapiens) (UniProt Q96PN8). Nature of the data set: Inhibition of wild-type human full length TSSK3 (M1 to T268 residues) expressed in mammalian expression system at 1 uM by Kinomescan method relative to control.
Data set [10] deals with Macrophage colony-stimulating factor 1 receptor (Homo sapiens) (UniProt P07333). Nature of the data set: Inhibition of wild-type human partial length autoinhibited CSF1R (Y538 to S939 residues) expressed in mammalian expression system at 1 uM by Kinomescan method relative to control.
Data set [11] deals with Death-associated protein kinase 1 (Homo sapiens) (UniProt P53355). Nature of the data set: Inhibition of wild-type human partial length DAPK1 (M1 to F296 residues) expressed in bacterial expression system at 1 uM by Kinomescan method relative to control.
Data set [12] is described as follows: Kinetic solubility of the compound at pH 1.5 by shake flask assay. Conditions: buffer, read-out: Kinetic_solubility. Format: physicochemical.
The target in data set [13] is Serine/threonine-protein kinase mTOR (Homo sapiens) (UniProt P42345). The experiment in a line: Inhibition of wild-type human partial length MTOR (L1382 to W2549 residues) expressed in mammalian expression system at 1 uM by Kinomescan method relative to control.
The subject of data set [14] is Tyrosine-protein kinase ABL1 (Homo sapiens), P00519 [Q252H]. The experiment in a line: Inhibition of human non-phosphorylated ABL1 Q252H mutant (S229 to K512 residues) expressed in mammalian expression system at 1 uM by Kinomescan method relative to control.
The target of data set [15] is BMP-2-inducible protein kinase (Homo sapiens) (UniProt Q9NSY1). Nature of the data set: Inhibition of wild-type human partial length BIKE (S34 to N329 residues) expressed in bacterial expression system at 10 uM by Kinomescan method relative to control.
In data set [16] the test system is Mast/stem cell growth factor receptor Kit (Homo sapiens), P10721 [D816H]. Nature of the data set: Inhibition of human partial length KIT D816H mutant (I571 to D952 residues) expressed in mammalian expression system at 10 uM by Kinomescan method relative to control.
Data set [17] deals with Ribosomal protein S6 kinase alpha-5 (Homo sapiens) (UniProt O75582). Nature of the data set: Inhibition of wild-type human partial length C-terminal RPS6KA5 kinase domain 2 (V390 to T718 residues) expressed in bacterial expression system at 10 uM by Kinomescan method relative to control.
Data set [18] addresses Activated CDC42 kinase 1 (Homo sapiens) (UniProt Q07912). The experiment in a line: Inhibition of wild-type human partial length TNK2 (S159 to D474 residues) expressed in bacterial expression system at 10 uM by Kinomescan method relative to control.
The test system of data set [19] is Receptor-type tyrosine-protein kinase FLT3 (Homo sapiens), P36888 [D835Y]. Nature of the data set: Inhibition of human partial length FLT3 D835Y mutant (Q580 to Y969 residues) expressed in bacterial expression system at 10 uM by Kinomescan method relative to control.
Data set [20] has as its target 1-phosphatidylinositol 3-phosphate 5-kinase (Homo sapiens) (UniProt Q9Y2I7). The experiment in a line: Inhibition of wild-type human partial length PIKFYVE (F1512 to C2098 residues) expressed in mammalian expression system at 10 uM by Kinomescan method relative to control.
The target in data set [21] is Receptor tyrosine-protein kinase erbB-4 (Homo sapiens) (UniProt Q15303). Nature of the data set: Inhibition of wild-type human partial length ERBB4 (L690 to K994 residues) expressed in bacterial expression system at 10 uM by Kinomescan method relative to control.
Data set [22] has as its target Serine/threonine-protein kinase D1 (Homo sapiens) (UniProt Q15139). Nature of the data set: Inhibition of wild-type human partial length PRKD1 (G551 to E870 residues) expressed in bacterial expression system at 10 uM by Kinomescan method relative to control.
Data set [23] concerns the target Atypical kinase COQ8A, mitochondrial (Homo sapiens) (UniProt Q8NI60). The experiment in a line: Inhibition of wild-type human […] ADCK3 (M280 to Q647 residues) expressed in bacterial expression system at 10 uM by Kinomescan method relative to control.
The target of data set [24] is Dual specificity testis-specific protein kinase 1 (Homo sapiens) (UniProt Q15569). The experiment in a line: Inhibition of wild-type human full length TESK1 (R37 to S626 residues) expressed in bacterial expression system at 10 uM by Kinomescan method relative to control.
In data set [25] the target is Serine/threonine-protein kinase 10 (Homo sapiens) (UniProt O94804). The experiment in a line: Inhibition of wild-type human partial length LOK (E16 to V314 residues) expressed in bacterial expression system at 10 uM by Kinomescan method relative to control.
For data set [26], the target named is Cyclin-dependent kinase 18 (Homo sapiens) (UniProt Q07002). The experiment in a line: Inhibition of wild-type human full length PCTK3 (M3 to F474 residues) expressed in bacterial expression system at 10 uM by Kinomescan method relative to control.
For data set [27], the target named is Tyrosine-protein kinase CSK (Homo sapiens) (UniProt P41240). Nature of the data set: Inhibition of wild-type human full length CSK (M1 to L450 residues) expressed in bacterial expression system at 10 uM by Kinomescan method relative to control.

Sequence of Epidermal growth factor receptor (Homo sapiens), P00533 [T790M] (P00533 whole entry T790M, the tested form may be a part): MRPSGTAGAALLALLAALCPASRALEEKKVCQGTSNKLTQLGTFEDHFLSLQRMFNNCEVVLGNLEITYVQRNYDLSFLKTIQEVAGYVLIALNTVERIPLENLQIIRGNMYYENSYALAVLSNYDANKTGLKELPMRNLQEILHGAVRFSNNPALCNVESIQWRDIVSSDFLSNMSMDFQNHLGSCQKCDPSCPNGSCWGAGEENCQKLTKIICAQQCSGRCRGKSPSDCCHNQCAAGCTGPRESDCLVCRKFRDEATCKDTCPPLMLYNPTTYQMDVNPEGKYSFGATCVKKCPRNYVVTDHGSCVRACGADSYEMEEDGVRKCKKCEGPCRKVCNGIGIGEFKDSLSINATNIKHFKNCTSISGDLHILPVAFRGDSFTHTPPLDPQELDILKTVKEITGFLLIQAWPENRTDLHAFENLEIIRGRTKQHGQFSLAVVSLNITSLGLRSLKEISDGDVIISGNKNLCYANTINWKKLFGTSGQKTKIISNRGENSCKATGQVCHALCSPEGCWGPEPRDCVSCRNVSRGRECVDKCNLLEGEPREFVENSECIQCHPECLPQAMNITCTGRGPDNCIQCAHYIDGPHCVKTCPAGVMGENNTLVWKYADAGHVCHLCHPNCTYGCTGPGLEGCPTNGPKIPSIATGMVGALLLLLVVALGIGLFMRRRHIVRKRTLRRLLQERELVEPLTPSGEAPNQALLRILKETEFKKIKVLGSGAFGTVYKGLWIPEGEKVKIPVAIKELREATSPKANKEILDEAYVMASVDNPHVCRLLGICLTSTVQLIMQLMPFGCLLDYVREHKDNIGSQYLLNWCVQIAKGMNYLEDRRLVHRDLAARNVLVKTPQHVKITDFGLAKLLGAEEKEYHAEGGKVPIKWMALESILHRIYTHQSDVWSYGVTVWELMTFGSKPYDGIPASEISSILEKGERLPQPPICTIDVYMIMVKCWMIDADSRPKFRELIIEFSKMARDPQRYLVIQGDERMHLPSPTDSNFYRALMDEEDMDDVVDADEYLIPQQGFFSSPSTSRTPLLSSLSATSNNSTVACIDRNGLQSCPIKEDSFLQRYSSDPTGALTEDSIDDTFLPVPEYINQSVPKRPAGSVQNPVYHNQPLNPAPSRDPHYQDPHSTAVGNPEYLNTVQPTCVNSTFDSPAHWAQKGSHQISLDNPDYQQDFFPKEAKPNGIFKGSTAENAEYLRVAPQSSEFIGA
Sequence of Atypical kinase COQ8A, mitochondrial (Homo sapiens) (Q8NI60 163-647 limits assumed): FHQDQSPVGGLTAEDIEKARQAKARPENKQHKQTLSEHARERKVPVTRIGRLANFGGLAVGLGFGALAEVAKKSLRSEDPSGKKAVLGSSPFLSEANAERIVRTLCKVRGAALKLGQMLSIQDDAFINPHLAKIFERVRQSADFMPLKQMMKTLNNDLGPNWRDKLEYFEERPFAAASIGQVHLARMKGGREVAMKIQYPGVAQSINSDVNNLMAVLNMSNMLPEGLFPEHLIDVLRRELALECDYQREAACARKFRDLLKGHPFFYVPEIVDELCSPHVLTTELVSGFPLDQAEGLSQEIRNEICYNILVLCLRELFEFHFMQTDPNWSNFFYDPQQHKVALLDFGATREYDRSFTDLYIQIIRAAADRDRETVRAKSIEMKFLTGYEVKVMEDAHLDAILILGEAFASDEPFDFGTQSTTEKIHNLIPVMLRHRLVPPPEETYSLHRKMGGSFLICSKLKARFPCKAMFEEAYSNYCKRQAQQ
Sequence of Mast/stem cell growth factor receptor Kit (Homo sapiens), P10721 [D816H] (P10721 whole entry D816H, the tested form may be a part): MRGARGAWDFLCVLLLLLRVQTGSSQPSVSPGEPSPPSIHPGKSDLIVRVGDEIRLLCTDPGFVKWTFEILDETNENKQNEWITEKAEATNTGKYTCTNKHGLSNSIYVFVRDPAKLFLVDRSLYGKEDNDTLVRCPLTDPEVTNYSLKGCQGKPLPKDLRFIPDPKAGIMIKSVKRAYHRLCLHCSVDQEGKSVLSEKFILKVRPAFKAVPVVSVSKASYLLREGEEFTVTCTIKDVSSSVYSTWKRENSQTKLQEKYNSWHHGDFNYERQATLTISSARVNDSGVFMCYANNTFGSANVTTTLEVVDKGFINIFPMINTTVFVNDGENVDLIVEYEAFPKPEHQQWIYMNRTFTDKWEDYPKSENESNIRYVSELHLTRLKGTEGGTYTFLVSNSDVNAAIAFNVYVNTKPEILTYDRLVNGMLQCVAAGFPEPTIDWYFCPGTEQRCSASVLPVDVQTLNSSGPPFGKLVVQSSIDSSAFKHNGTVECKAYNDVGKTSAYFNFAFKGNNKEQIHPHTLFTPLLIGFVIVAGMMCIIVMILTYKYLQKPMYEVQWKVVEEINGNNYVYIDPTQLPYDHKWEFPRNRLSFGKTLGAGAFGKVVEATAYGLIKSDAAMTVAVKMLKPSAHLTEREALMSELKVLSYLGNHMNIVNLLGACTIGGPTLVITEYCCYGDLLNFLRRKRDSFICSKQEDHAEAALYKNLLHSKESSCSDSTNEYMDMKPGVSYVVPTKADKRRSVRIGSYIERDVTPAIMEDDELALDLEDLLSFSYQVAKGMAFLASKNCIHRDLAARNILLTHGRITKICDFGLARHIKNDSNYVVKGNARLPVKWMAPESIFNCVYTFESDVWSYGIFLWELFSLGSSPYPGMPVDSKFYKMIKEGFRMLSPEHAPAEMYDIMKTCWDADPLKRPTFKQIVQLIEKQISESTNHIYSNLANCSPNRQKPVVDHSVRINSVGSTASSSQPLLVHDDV
Sequence of Epidermal growth factor receptor (Homo sapiens), P00533 [L858R] (P00533 whole entry L858R, the tested form may be a part): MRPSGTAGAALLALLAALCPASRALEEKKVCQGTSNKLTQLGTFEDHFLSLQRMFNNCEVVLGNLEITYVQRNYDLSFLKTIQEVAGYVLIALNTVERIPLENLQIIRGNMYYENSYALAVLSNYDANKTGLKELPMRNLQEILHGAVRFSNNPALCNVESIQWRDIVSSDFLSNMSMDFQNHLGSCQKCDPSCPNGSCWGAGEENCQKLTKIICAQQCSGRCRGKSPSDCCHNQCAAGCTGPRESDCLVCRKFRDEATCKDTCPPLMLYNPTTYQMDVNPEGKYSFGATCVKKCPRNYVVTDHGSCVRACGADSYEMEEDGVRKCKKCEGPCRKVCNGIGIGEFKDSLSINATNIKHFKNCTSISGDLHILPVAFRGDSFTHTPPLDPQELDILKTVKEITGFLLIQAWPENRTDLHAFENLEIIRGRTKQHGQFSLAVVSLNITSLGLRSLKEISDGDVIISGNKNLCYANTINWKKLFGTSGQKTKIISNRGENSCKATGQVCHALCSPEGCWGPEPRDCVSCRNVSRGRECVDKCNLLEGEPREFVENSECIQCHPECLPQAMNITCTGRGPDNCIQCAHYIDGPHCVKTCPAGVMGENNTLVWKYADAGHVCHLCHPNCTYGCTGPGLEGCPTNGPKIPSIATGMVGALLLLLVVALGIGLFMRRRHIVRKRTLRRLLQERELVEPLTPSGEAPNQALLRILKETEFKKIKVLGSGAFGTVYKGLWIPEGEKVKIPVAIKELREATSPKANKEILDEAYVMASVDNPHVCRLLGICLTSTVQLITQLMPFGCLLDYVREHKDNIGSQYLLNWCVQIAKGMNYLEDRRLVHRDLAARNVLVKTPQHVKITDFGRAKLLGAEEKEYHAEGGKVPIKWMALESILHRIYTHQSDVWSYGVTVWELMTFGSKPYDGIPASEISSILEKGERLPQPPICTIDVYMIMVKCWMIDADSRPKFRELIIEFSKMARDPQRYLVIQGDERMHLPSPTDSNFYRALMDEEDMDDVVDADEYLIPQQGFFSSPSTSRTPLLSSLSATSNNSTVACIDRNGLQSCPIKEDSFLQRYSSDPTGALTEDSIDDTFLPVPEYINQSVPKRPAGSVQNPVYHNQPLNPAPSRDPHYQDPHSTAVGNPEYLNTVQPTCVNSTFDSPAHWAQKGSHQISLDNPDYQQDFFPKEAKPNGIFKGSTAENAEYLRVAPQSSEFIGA
Sequence of Phosphatidylinositol 4,5-bisphosphate 3-kinase catalytic subunit alpha isoform (Homo sapiens), P42336 [H1047L] (P42336 whole entry H1047L, the tested form may be a part, canonical isoform): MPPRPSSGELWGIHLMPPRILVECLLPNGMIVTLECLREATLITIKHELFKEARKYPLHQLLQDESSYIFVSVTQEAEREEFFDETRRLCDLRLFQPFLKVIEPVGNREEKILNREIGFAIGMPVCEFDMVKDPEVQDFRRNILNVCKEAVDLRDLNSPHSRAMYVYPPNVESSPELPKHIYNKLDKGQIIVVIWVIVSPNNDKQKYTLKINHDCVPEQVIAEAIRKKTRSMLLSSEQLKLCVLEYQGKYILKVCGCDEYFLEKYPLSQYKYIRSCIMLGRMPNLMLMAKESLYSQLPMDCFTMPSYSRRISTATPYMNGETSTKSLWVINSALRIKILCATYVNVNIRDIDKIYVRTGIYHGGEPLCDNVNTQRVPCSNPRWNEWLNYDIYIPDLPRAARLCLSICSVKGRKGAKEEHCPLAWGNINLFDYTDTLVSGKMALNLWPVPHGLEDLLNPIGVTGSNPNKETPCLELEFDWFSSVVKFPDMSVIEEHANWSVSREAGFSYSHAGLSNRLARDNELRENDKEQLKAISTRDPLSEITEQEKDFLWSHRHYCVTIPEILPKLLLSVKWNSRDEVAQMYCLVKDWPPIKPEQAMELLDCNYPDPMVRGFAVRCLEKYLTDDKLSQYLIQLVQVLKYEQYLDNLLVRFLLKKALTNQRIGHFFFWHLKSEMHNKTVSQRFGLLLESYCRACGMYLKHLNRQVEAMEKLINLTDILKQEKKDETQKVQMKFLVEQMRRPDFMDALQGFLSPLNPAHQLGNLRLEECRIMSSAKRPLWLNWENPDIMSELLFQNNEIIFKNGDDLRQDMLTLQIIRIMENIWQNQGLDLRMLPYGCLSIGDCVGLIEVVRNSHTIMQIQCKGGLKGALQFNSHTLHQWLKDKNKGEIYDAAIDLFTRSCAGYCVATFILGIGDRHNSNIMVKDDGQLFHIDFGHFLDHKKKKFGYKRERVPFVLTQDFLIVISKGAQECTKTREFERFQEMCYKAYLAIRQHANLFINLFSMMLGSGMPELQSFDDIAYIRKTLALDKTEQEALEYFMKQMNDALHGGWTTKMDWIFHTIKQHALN

Turning to `O=C(Nc1cccc([C@@H]2CN(c3ncnc4[nH]ccc34)CCN2CCO)c1)Nc1c(F)cccc1N1CCCC1`, the inhibition (in general, the relative decrease from the control value, in per cent) in [1] came out at 100%; in data set [2], 99%; in [3], 68%; in data set [4], 76%; in data set [5] it was 28%; in data set [6], 100%. Besides, the inhibition in data set [7] stood at 86%; in data set [8] it was 96%; in data set [9], 43%; in data set [10], 83%; in data set [11], 5.3%; in [13], 96%. The same compound registered an inhibition in [14] of 55%. Also, the solubility kinetic in data set [12] came out at 94 µg/mL (≈ 173 µM).

For the compound `O=C(Nc1cccc([C@H]2CCCN(c3ncnc4[nH]ccc34)C2)c1)Nc1ccccc1N1CCCC1`, the inhibition in data set [15] stood at 0%; in [16], 4.2%; in data set [17], 75%; in [18], 100%; in data set [19], 1.9%; in data set [20], 77%. The inhibition in [21] turned out to be 88%; in data set [22], 100%; in data set [23] it was 100%; in [24], 100%; in [25], 0.45%; in data set [26], 70%. The same compound returned an inhibition in data set [27] of 83%.
